Data published in ChEMBL document CHEMBL3885881, “DrugMatrix”.

Organism: Rattus norvegicus
Experiment: DrugMatrix - Regimen: Daily Repeat
Type: toxicity, organism-based, Sprague-Dawley
Design: regimen Daily Repeat, gender Male, age 6-8 weeks
Conditions: in vivo, po, route oral GAVAGE; for ALANINE AMINOTRANSFERASE / ALBUMIN / ALKALINE PHOSPHATASE / ASPARTATE AMINOTRANSFERASE / BLOOD UREA NITROGEN / CARBON DIOXIDE / CHLORIDE / CHOLESTEROL / CREATINE PHOSPHOKINASE / CREATININE / GLUCOSE / LACTATE DEHYDROGENASE / LIPASE / PHOSPHORUS / POTASSIUM / SODIUM / TOTAL BILIRUBIN / TOTAL PROTEIN / URIC ACID: tissue Plasma
[1] = 0 mg/kg, 120 h, tissue Blood, dose level Control, time 5 day, vehicle 100 % WATER
[2] = 0 mg/kg, 120 h, dose level Control, time 5 day, […]
[3] = 0 mg/kg, 120 h, dose level Control, time 5 day, vehicle 100 % WATER
[4] = 20 mg/kg, 72 h, tissue Blood, dose level Low, time 3 day, […]
[5] = 20 mg/kg, 72 h, dose level Low, time 3 day, […]
[6] = 20 mg/kg, 120 h, tissue Blood, dose level Low, time 5 day, […]

Compound: Cn1cnc([N+](=O)[O-])c1Sc1ncnc2nc[nH]c12 [AZATHIOPRINE]
- ABSOLUTE LYMPHOCYTE [1]: 8181 CELLS/uL
- ABSOLUTE MONOCYTE [1]: 82.67 CELLS/uL
- ABSOLUTE SEGMENTED NEUTROPHIL [1]: 435.17 CELLS/uL
- EOSINOPHIL [1]: 0.5%
- HEMATOCRIT [1]: 33.83%
- HEMOGLOBIN [1]: 13.37 G/DL
- LEUKOCYTE COUNT [1]: 8.73 x10E3/uL
- LYMPHOCYTE [1]: 93.5%
- MEAN CORPUSCULAR HEMOGLOBIN [1]: 25.2 pg
- MEAN CORPUSCULAR HEMOGLOBIN CONCENTRATION [1]: 39.53 G/DL
- MEAN CORPUSCULAR VOLUME [1]: 63.73 fL
- MONOCYTE [1]: 1%
- NEUTROPHIL [1]: 5%
- NUCLEATED RED BLOOD CELLS [1]: 0 /100WBC
- PLATELET COUNT [1]: 1057.33 x10E3/uL
- ALANINE AMINOTRANSFERASE [2]: 59.67 u/L
- ALBUMIN [2]: 3.87 G/DL
- ALKALINE PHOSPHATASE [2]: 452 u/L
- ASPARTATE AMINOTRANSFERASE [2]: 81.33 u/L
- BLOOD UREA NITROGEN [2]: 13.67 mg/dL
- CARBON DIOXIDE [2]: 26.33 mmol/L
- CHLORIDE [2]: 103.67 MEQ/L
- CHOLESTEROL [2]: 65.67 mg/dL
- CREATINE PHOSPHOKINASE [2]: 355.33 u/L
- CREATININE [2]: 0.14 mg/dL
- GLUCOSE [2]: 171.33 mg/dL
- LACTATE DEHYDROGENASE [2]: 118 u/L
- LIPASE [2]: 11.33 u/L
- PHOSPHORUS [2]: 11.13 mg/dL
- POTASSIUM [2]: 5.18 MEQ/L
- SODIUM [2]: 143.17 MEQ/L
- TOTAL BILIRUBIN [2]: 0.2 mg/dL
- TOTAL PROTEIN [2]: 5.87 G/DL
- URIC ACID [2]: 0.63 mg/dL
- ALANINE AMINOTRANSFERASE [3]: 54.33 u/L
- ALBUMIN [3]: 4.07 G/DL
- ALKALINE PHOSPHATASE [3]: 308.67 u/L
- ASPARTATE AMINOTRANSFERASE [3]: 83.17 u/L
- BLOOD UREA NITROGEN [3]: 14 mg/dL
- CARBON DIOXIDE [3]: 34 mmol/L
- CHLORIDE [3]: 98 MEQ/L
- CHOLESTEROL [3]: 71.33 mg/dL
- CREATINE PHOSPHOKINASE [3]: 266.5 u/L
- CREATININE [3]: 0.27 mg/dL
- GLUCOSE [3]: 133 mg/dL
- LACTATE DEHYDROGENASE [3]: 127 u/L
- LIPASE [3]: 11.67 u/L
- PHOSPHORUS [3]: 10.6 mg/dL
- POTASSIUM [3]: 6.17 MEQ/L
- SODIUM [3]: 142.68 MEQ/L
- TOTAL BILIRUBIN [3]: 0.15 mg/dL
- TOTAL PROTEIN [3]: 6.03 G/DL
- URIC ACID [3]: 0.75 mg/dL
- ABSOLUTE BASOPHIL [4]: 0 CELLS/uL
- ABSOLUTE EOSINOPHIL [4]: 0 CELLS/uL
- ABSOLUTE LYMPHOCYTE [4]: 5839.67 CELLS/uL
- ABSOLUTE MONOCYTE [4]: 204 CELLS/uL
- ABSOLUTE SEGMENTED NEUTROPHIL [4]: 256.33 CELLS/uL
- BASOPHIL [4]: 0%
- EOSINOPHIL [4]: 0%
- ERYTHROCYTE COUNT [4]: 4.55 x10E6/uL
- HEMATOCRIT [4]: 29%
- HEMOGLOBIN [4]: 11.47 G/DL
- LEUKOCYTE COUNT [4]: 6.3 x10E3/uL
- LYMPHOCYTE [4]: 93%
- MEAN CORPUSCULAR HEMOGLOBIN [4]: 25.37 pg
- MEAN CORPUSCULAR HEMOGLOBIN CONCENTRATION [4]: 39.7 G/DL
- MEAN CORPUSCULAR VOLUME [4]: 64 fL
- MONOCYTE [4]: 3%
- NEUTROPHIL [4]: 4%
- NUCLEATED RED BLOOD CELLS [4]: 0.33 /100WBC
- PLATELET COUNT [4]: 1104.33 x10E3/uL
- ALANINE AMINOTRANSFERASE [5]: 61 u/L
- ALBUMIN [5]: 4.2 G/DL
- ALKALINE PHOSPHATASE [5]: 326.33 u/L
- ASPARTATE AMINOTRANSFERASE [5]: 82 u/L
- BLOOD UREA NITROGEN [5]: 14 mg/dL
- CARBON DIOXIDE [5]: 39.33 mmol/L
- CHLORIDE [5]: 106.33 MEQ/L
- CHOLESTEROL [5]: 92.67 mg/dL
- CREATINE PHOSPHOKINASE [5]: 229 u/L
- CREATININE [5]: 0.21 mg/dL
- GLUCOSE [5]: 156.33 mg/dL
- LACTATE DEHYDROGENASE [5]: 82.67 u/L
- LIPASE [5]: 11 u/L
- PHOSPHORUS [5]: 9.27 mg/dL
- POTASSIUM [5]: 5.07 MEQ/L
- SODIUM [5]: 137.8 MEQ/L
- TOTAL BILIRUBIN [5]: 0.1 mg/dL
- TOTAL PROTEIN [5]: 6.23 G/DL
- URIC ACID [5]: 0.5 mg/dL
- ABSOLUTE BASOPHIL [6]: 0 CELLS/uL
- ABSOLUTE EOSINOPHIL [6]: 0 CELLS/uL
- ABSOLUTE LYMPHOCYTE [6]: 5125.67 CELLS/uL
